Results taken from PubChem BioAssay AID2254 (The Scripps Research Institute Molecular Screening Center, 2010).

These compounds were tested against Serine hydrolase RBBP9 (Homo sapiens) (UniProt O75884) (assay: RBBP9 hydrolase inhibition, IC50 by ABPP – biochemical, gel-based ABPP, late-stage follow-up (AID 2254)). Details: fluorophosphonate probe labeling of RBBP9.
Sequence of Serine hydrolase RBBP9 (Homo sapiens) (O75884 whole entry, looked up): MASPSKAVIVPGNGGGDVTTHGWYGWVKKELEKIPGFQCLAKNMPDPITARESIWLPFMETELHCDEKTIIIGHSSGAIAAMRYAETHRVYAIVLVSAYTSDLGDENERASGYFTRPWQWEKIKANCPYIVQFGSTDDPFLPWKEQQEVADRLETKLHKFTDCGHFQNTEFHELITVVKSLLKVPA

IC50	Compound
0.635 µM	C/C(=N\OC(=O)C1CCCCC1)c1nccs1
9.1 µM	COc1ccc(C(=O)O/N=C(\C)c2nccs2)cc1
5.7 µM	C/C(=N\OC(=O)c1ccc(F)cc1)c1nccs1
1.9 µM	C/C(=N\OC(=O)c1ccc(Cl)cc1)c1nccs1
